Each structure is given as a SMILES string.

Drawing on PMC5750238 (2018), this text covers EC50 for 1 compound.

This assay concerns S6-M19-SAM sensor (RNA, riboswitch) GGGAGAUAGAGCAUCCGAUAACUUCGGUUAUUGGAUGGAUCAGACUCCUUCGGGAGUUUGAUCGGGCCUGAAGCCUCCACGGGCCCCUCUGUCUCCCACAGCUUGGACGAGCUGAAGGAGGCACGGCUCCCCAUCAAGGACGGGUCCAAUGGUCCGCUUCGGCGGAUCAUUGUUGAGUAGAGUGUGAGGAUGGGCCGGGGGAACUUCGGUUCCCGAAAGGACCGGUCGAAGGGACGGUGCGGAGAGGAGAGACUGGGAUGCCUUGUAACCGGGUCUAAGUUGU
As to the kind of experiment: FRET dose-response (Spinach/DFHBI-1T to Mango/YO3-biotin). The note with it: 125 mM KCl, 1 mM MgCl2; assembly buffer; 50 nM RNA, 1 µM DFHBI-1T, 1.7 µM YO3-biotin; SAM 1 µM to 2.5 mM; apparent.

As usually defined, the EC50 is the concentration that produces a half-maximal response. Regarding `C[S+](CC[C@H](N)C(=O)O)C[C@H]1O[C@@H](n2cnc3c(N)ncnc32)[C@H](O)[C@@H]1O` (stereo partly shown), the 50% effective concentration (EC50) turned out to be 17 µM.
